The results in this text go back to patent US8232288B2, “Substituted benzimidazoles, benzothiazoles and benzoxazoles” (Gruenenthal GmbH, priority 2009, dated 2012).

The target of assay [1] is T1, human B1R receptor (hB1R) (Homo sapiens, UniProt P46663).
T1 construct: expressed in transfected cells; host or cells: CHO K1 cells
T1 sequence (P46663 1-353): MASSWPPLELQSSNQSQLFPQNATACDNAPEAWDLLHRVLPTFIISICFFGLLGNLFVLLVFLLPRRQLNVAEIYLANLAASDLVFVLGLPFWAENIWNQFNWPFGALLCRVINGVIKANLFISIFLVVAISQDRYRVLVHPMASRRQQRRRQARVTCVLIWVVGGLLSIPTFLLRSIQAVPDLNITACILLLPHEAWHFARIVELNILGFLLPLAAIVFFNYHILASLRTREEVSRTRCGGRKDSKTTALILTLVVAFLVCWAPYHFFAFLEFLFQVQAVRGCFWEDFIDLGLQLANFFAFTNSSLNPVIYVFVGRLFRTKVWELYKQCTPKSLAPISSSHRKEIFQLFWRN
Description: Functional investigation on the bradykinin receptor 1 (B1R), FLIPR Ca2+ assay, hB1R cells. The format is cell-based. Here is the method: (§1) The agonistic or antagonistic action of substances can be quantified on the bradykinin receptor 1 (B1R) of the human and rat species with ectopically expressing cell lines (CHO K1 cells) and with the aid of a Ca^2+-sensitive dyestuff (Fluo-4) in a fluorescent imaging plate reader (FLIPR). The figure in % activation is based on the Ca^2+ signal after addition of Lys-Des-Arg^9-bradykinin (0.5 nM) or Des-Arg^9-bradykinin (100 nM). Antagonists lead to a suppression of the Ca^2+ inflow after addition of the agonist. % inhibition compared with the maximum achievable inhibition is stated.
(§2) The agonistic or antagonistic action of substances can be determined on the bradykinin receptor 1 (B1R) of the human and rat species with the following assay. In accordance with this assay, the Ca^2+ inflow through the channel is quantified with the aid of a Ca^2+-sensitive dyestuff (type Fluo-4, Molecular Probes Europe BV, Leiden Holland) in a fluorescent imaging plate reader (FLIPR, Molecular Devices, Sunnyvale, USA).
(§3) Chinese hamster ovary cells (CHO K1 cells) transfected stably with the human B1R gene (hB1R cells) or the B1R gene of the rat (rB1R cells) are used. For functional studies, these cells are plated out on black 96-well plates with a clear base (BD Biosciences, Heidelberg, Germany or Greiner, Frickenhausen, Germany) in a density of 20,000-35,000 cells/well. The cells are left overnight at 37° C. and 5% CO2 in culture medium (hB1R cells: Nutrient Mixture Ham's F12, Gibco Invitrogen GmbH, Karlsruhe, Germany or DMEM, Sigma-Aldrich, Taufkirchen, Germany; rB1R cells: D-MEM/F12, Gibco Invitrogen GmbH, Karlsruhe, Germany) with 10 vol. % FBS (foetal bovine serum, Gibco Invitrogen GmbH, Karlsruhe, Germany or PAN Biotech GmbH, Aidenbach, Germany). On the following day, the cells are loaded for 60 min at 37° C. with 2.13 μM Fluo-4 (Molecular Probes Europe BV, Leiden Holland) in HBSS buffer (Hank's buffered saline solution, Gibco Invitrogen GmbH, Karlsruhe, Germany) with 2.5 mM probenecid (Sigma-Aldrich, Taufkirchen, Germany) and 10 mM HEPES (Sigma-Aldrich, Taufkirchen, Germany). The plates are then washed 2× with HBSS buffer, and HBSS buffer which additionally contains 0.1% BSA (bovine serum albumin; Sigma-Aldrich, Taufkirchen, Germany), 5.6 mM glucose and 0.05% gelatine (Merck KGaA, Darmstadt, Germany) is added. After a further incubation of 20 minutes at room temperature, the plates are inserted into the FLIPR for the Ca^2+ measurement.
(§4) Alternatively, the plates are washed with buffer A (15 mM HEPES, 80 mM NaCl, 5 mM KCl, 1.2 mM CaCl2, 0.7 mM MgSO4, 2 g/l glucose, 2.5 mM probenecid), buffer A is added and the plates are loaded with 2.5 μM Fluo-4 and 0.025% Pluronic F127 (Sigma-Aldrich, Taufkirchen, Germany). Thereafter, the cells are washed 2× with buffer A and incubated for 30 minutes at room temperature with buffer A, which additionally contains 0.05% BSA and 0.05% gelatine, and thereafter inserted into the FLIPR for the Ca^2+ measurement.
(§5) The Ca^2+-dependent fluorescence is measured here before and after addition of substances (λex=488 nm, λem=540 nm). Quantification is by measurement of the highest fluorescence intensity (FC, fluorescence counts) over time.
(§6) The FLIPR protocol consists of 2 additions of substance. Test substances (10 μM) are first pipetted on to the cells and the Ca^2+ inflow is compared with the control (hB1R: Lys-Des-Arg^9-bradykinin>=50 nM; rB1R: Des-Arg^9-bradykinin 10 μM). This gives the result in % activation based on the Ca^2+ signal after addition of Lys-Des-Arg^9-bradykinin (>=50 nM) or Des-Arg^9-bradykinin (10 μM). After incubation for 10-20 minutes, Lys-Des-Arg^9-bradykinin (hB1R) or Des-Arg^9-bradykinin (rB1R) in the concentration of the EC80 is applied and the inflow of Ca^2+ is likewise determined. Antagonists lead to a suppression of the Ca^2+ inflow. % inhibition compared with the maximum achievable inhibition is calculated.
(§7) In order to determine the IC50 value, the substances are added in various concentrations. […]

For assay [2], the target named is T2, B1R receptor of the rat (rB1R) (Rattus norvegicus, UniProt P97583).
T2 construct: expressed in transfected cells; host or cells: CHO K1 cells
T2 sequence (P97583 1-337): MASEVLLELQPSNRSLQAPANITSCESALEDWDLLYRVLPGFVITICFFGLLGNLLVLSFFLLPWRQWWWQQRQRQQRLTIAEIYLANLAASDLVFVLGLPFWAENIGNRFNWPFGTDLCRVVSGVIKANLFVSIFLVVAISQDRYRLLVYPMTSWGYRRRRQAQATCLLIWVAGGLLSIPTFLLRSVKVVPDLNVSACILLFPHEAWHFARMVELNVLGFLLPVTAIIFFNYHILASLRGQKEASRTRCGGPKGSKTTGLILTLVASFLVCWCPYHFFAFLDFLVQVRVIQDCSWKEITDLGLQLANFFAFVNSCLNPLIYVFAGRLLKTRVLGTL
Description: Functional investigation on the bradykinin receptor 1 (B1R), FLIPR Ca2+ assay, rB1R cells. The format is cell-based. The procedure:
as §1, §2, §3, §4, §5, §6, §7

By inhibition is commonly meant the change of the read-out against control, counted positive when it falls. As to `COc1cc(C)c(S(=O)(=O)N(C)C(C)c2nc3cccc(C(=O)N4CCC5(CCN(Cc6cc(F)ccc6F)CC5)CC4)c3[nH]2)c(C)c1` (stereo not shown) [I_CC-31, N-[1-[7-[9-[(2,5-Difluoro-phenyl)-methyl]-3,9-diazaspiro[5.5]undecane-3-carbonyl]-1H-benzoimidazol-2-yl]-ethyl]-4-methoxy-N,2,6-trimethyl-benzenesulfonic acid amide], the inhibition at 10 µM came to 63% in assay [1] and 104% in assay [2].
For `COc1cc(C)c(S(=O)(=O)N(C)Cc2nc3cccc(CC(=O)N4CCC5(CC4)CCN(c4ccncc4)CC5)c3[nH]2)c(C)c1` [I_21, 4-methoxy-N,2,6-trimethyl-N-[[7-[2-oxo-2-(9-pyridin-4-yl-3,9-diazaspiro[5.5]undecan-3-yl)-ethyl]-1H-benzoimidazol-2-yl]-methyl]-benzenesulfonic acid amide], the inhibition at 10 µM in assay [1] was 99%; in assay [2], 55%.
For `COc1cc(C)c(S(=O)(=O)N(C)c2nc3ccc(C(=O)N4CCC5(CC4)CCN(c4ccncc4)CC5)cc3n2C)c(C)c1` [I_CC-17, 4-methoxy-N,2,6-trimethyl-N-[1-methyl-6-(3-pyridin-4-yl-3,9-diazaspiro[5.5]undecane-9-carbonyl)-1H-benzoimidazol-2-yl]-benzenesulfonic acid amide], the inhibition at 10 µM in assay [1] came out at 71%; in assay [2] it was 56%.
In the same order, the values of `COc1cc(C)c(S(=O)(=O)N(C)C(C)c2nc3cccc(C(=O)N4CCC5(CC4)CCN(C(=O)c4cc(C(C)(C)C)nn4C)CC5)c3[nH]2)c(C)c1` (stereo not shown) [I_CC-54, N-[1-[7-[9-(5-tert-Butyl-2-methyl-2H-pyrazole-3-carbonyl)-3,9-diazaspiro[5.5]undecane-3-carbonyl]-1H-benzoimidazol-2-yl]-ethyl]-4-methoxy-N,2,6-trimethyl-benzenesulfonic acid amide] are 63% and 92%.
Regarding `COc1cc(C)c(S(=O)(=O)N(C)Cc2nc3cccc(C(=O)N4CCC5(CC4)CCN(c4ccncc4)CC5)c3[nH]2)c(C)c1` [I_01, 4-methoxy-N,2,6-trimethyl-N-[[7-(9-pyridin-4-yl-3,9-diazaspiro[5.5]undecane-3-carbonyl)-1H-benzoimidazol-2-yl]-methyl]-benzenesulfonic acid amide], the “% Inhibition (human B1R) at 10 μM” value in assay [1] (10 µM) came out at 98%. The “% Inhibition (rat B1R) at 10 μM” value in assay [2] (10 µM) is recorded as 96%.
On to `COc1cc(C)c(S(=O)(=O)N(C)C(C)c2nc3cccc(C(=O)N4CCC5(CCN(Cc6c(C)noc6C)CC5)CC4)c3[nH]2)c(C)c1` (stereo not shown) [I_CC-42, N-[1-[7-[9-[(3,5-Dimethyl-isoxazol-4-yl)-methyl]-3,9-diazaspiro[5.5]undecane-3-carbonyl]-1H-benzoimidazol-2-yl]-ethyl]-4-methoxy-N,2,6-trimethyl-benzenesulfonic acid amide], for which the inhibition at 10 µM in assay [1] stood at 76%; in assay [2] it was 90%.
Take `COc1cc(C)c(S(=O)(=O)N(C)C(C)c2nc3cccc(C(=O)N4CCC5(CCN(Cc6ccccc6C#N)CC5)CC4)c3[nH]2)c(C)c1` (stereo not shown) [I_CC-45, N-[1-[7-[9-[(2-Cyano-phenyl)-methyl]-3,9-diazaspiro[5.5]undecane-3-carbonyl]-1H-benzoimidazol-2-yl]-ethyl]-4-methoxy-N,2,6-trimethyl-benzenesulfonic acid amide]: the inhibition at 10 µM in assay [1] turned out to be 81%; in assay [2], 98%.
In the same order, the values of `COc1cc(C)c(S(=O)(=O)N(C)C(C)c2nc3cccc(C(=O)N4CCC5(CCN(C(=O)c6cnccn6)CC5)CC4)c3[nH]2)c(C)c1` (stereo not shown) [I_CC-47, 4-Methoxy-N,2,6-trimethyl-N-[1-[7-[9-(pyrazine-2-carbonyl)-3,9-diazaspiro[5.5]undecane-3-carbonyl]-1H-benzoimidazol-2-yl]-ethyl]-benzenesulfonic acid amide] are 58% and 90%.
As for `Cc1cc(S(=O)(=O)N(C)Cc2nc3cccc(C(=O)N4CCC5(CC4)CCN(c4ccncc4)CC5)c3[nH]2)c(C)cc1Cl` [I_CC-01, 4-chloro-N,2,5-trimethyl-N-[[7-(3-pyridin-4-yl-3,9-diazaspiro[5.5]undecane-9-carbonyl)-1H-benzoimidazol-2-yl]-methyl]-benzenesulfonic acid amide], the inhibition at 10 µM is 96% in assay [1] and 92% in assay [2].
Turning to `COc1cc(C)c(S(=O)(=O)N(C)C(C)c2nc3cccc(C(=O)N4CCC5(CCN(Cc6c[nH]c(C)n6)CC5)CC4)c3[nH]2)c(C)c1` (stereo not shown) [I_CC-37, 4-Methoxy-N,2,6-trimethyl-N-[1-[7-[9-[(2-methyl-1H-imidazol-4-yl)-methyl]-3,9-diazaspiro[5.5]undecane-3-carbonyl]-1H-benzoimidazol-2-yl]-ethyl]-benzenesulfonic acid amide], the inhibition at 10 µM in assay [1] came to 80%; in assay [2], 101%.
As for `COc1cc(C)c(S(=O)(=O)N(C)C(C)c2nc3cccc(C(=O)N4CCC5(CCN(C(=O)c6cccnc6SC)CC5)CC4)c3[nH]2)c(C)c1` (stereo not shown) [I_CC-48, 4-Methoxy-N,2,6-trimethyl-N-[1-[7-[9-(2-methylsulfanyl-pyridine-3-carbonyl)-3,9-diazaspiro[5.5]undecane-3-carbonyl]-1H-benzoimidazol-2-yl]-ethyl]-benzenesulfonic acid amide], the inhibition at 10 µM turned out to be 61% in assay [1] and 89% in assay [2].
For the molecule `COc1cc(C)c(S(=O)(=O)N(C)c2nc3cccc(C(=O)N4CCC5(CC4)CCN(c4ccncc4)CC5)c3n2C)c(C)c1` [I_CC-14, 4-methoxy-N,2,6-trimethyl-N-[1-methyl-7-(3-pyridin-4-yl-3,9-diazaspiro[5.5]undecane-9-carbonyl)-1H-benzoimidazol-2-yl]-benzenesulfonic acid amide], the inhibition at 10 µM came out at 96% in assay [1] and 90% in assay [2].
For `COc1cc(C)c(S(=O)(=O)N(C)C(C)c2nc3cccc(C(=O)N4CCC5(CC4)CCN(S(=O)(=O)c4cccc6c4ccn6C)CC5)c3[nH]2)c(C)c1` (stereo not shown) [I_CC-60, 4-Methoxy-N,2,6-trimethyl-N-[1-[7-[9-[(1-methyl-1H-indol-4-yl)sulfonyl]-3,9-diazaspiro[5.5]undecane-3-carbonyl]-1H-benzoimidazol-2-yl]-ethyl]-benzenesulfonic acid amide], in assay [2], the inhibition at 10 µM amounted to 101%.
